Laboratory results published in patent US10112911B2, “Substituted cyanoguanidines as oral anti-virals” (Abbvie Inc, priority 2012, dated 2018).

system: RSV (Group A, Long Strain); test: Cytopathetic effect (CPE) protection antiviral assay, MTT readout; type: cell-based; settings: human respiratory syncytial virus, HEp-2, 96 h, HEp-2 cells, 0.2 MOI RSV, 4 days incubation, protection from CPE (Table 1); read-out: RSV EC50
Experimental: HEp-2 cells and RSV (Group A, Long Strain) were obtained from the American Type Culture Collection (Manassas, Va.).
A cytopathetic effect (CPE) protection assay was performed to determine the ability of a compound to protect the cells from viral infection and thus the CPE induced by viral infection. 96-Well plates were first seeded with […] per well in Dulbecco's modified Eagle's medium (DMEM) containing 10% fetal bovine serum (FBS). One day after the cells were seeded, they were preincubated with serial dilutions of compounds prepared in 100 μL assay medium (DMEM mixed with F12 medium at a 1:1 ratio, supplemented with 2% FBS and 1 mM sodium pyruvate) for 1 hour at 37° C. 100 μL of assay medium containing 0.2 multiplicity of infection (MOI) of RSV was then added to each well of cells. In addition to wells containing infected cells incubated with compounds, each plate also contained replicates of two kinds of controls: (1) Virus control contained cells infected with 0.2 MOI of RSV in assay medium, (2) Uninfected cell control contained cells incubated with assay medium only. After 4 days of incubation at 37° C., the viability of cells was assessed using MTT (Thiazolyl blue tetrazolium bromide, Sigma). A stock solution of MTT, at a concentration of 4 mg/mL in phosphate-buffered saline, was added to all wells at 25 μL per well. Plates were further incubated for 4 hours, and each well was then treated with 50 μL of a solution containing 20% sodium dodecyl sulfate (SDS) and 0.02 N HCl. After an overnight incubation, the plates were measured on a BioTek® microtiter plate reader at wavelengths of 570 nm and 650 nm. The MTT detection is based on the fact that viable (uninfected) cells can reduce the tetrazolium salts into colored formazan products, which can then be quantitated by spectrometry. Based on the spectrometric absorbance of each sample, the percent of protection from CPE, which is an indicator of protection from viral infection, can be calculated for each compound and the 50% effective concentrations (EC50) can be calculated using a nonlinear regression curve fitting equation provided by the GraphPad Prism® 4 software.
Compounds were tested to determine both their antiviral and toxicity to determine their therapeutic window. Determination of the EC50 and TD50 of these active compounds were repeated one additional time to confirm the window.

EC50 | SMILES
> 10 µM | Cc1ccccc1N/C(=N/C#N)N1CCN(c2cnc3ccccc3n2)CC1C (centres unmarked) [Example 1.42, N′-cyano-2-methyl-N-(2-methylphenyl)-4-(quinoxalin-2-yl)piperazine-1-carboximidamide]
> 10 µM | Cc1ccccc1N/C(=N/C#N)N1CCN(c2cnc3ccccc3n2)CC12CCC2 [Example 1.43, N′-cyano-N-(2-methylphenyl)-8-(quinoxalin-2-yl)-5,8-diazaspiro[3.5]nonane-5-carboximidamide]
> 10 µM | Cc1ccccc1N/C(=N/C#N)N1CCN(c2cnc3ccccc3n2)CC12CC2 [Example 1.45, N′-cyano-N-(2-methylphenyl)-7-(quinoxalin-2-yl)-4,7-diazaspiro[2.5]octane-4-carboximidamide]
> 10 µM | Cc1ccccc1N/C(=N/C#N)N1CCN(c2cnc3ccccc3n2)CC1C(C)(C)C (centres unmarked) [Example 1.46, 2-tert-butyl-N′-cyano-N-(2-methylphenyl)-4-(quinoxalin-2-yl)piperazine-1-carboximidamide]
> 1.38 µM | CCC(C)C1CN(c2cnc3ccccc3n2)CCN1/C(=N\C#N)Nc1ccccc1C (centres unmarked) [Example 1.47, 2-sec-butyl-N′-cyano-N-(2-methylphenyl)-4-(quinoxalin-2-yl)piperazine-1-carboximidamide]
> 3.2 µM | Cc1ccccc1N/C(=N/C#N)N1CCN(c2cnc3ccccc3n2)CC1CC1CCCCC1 (centres unmarked) [Example 1.49, N′-cyano-2-(cyclohexylmethyl)-N-(2-methylphenyl)-4-(quinoxalin-2-yl)piperazine-1-carboximidamide]
> 32 µM | Cc1ccccc1N/C(=N/C#N)N1CCN(c2ncc3ccccc3n2)CC1C(C)C (centres unmarked) [Example 1.62, N′-cyano-2-isopropyl-N-(2-methylphenyl)-4-(quinazolin-2-yl)piperazine-1-carboximidamide]
> 10 µM | Cc1ccccc1NC(=NC#N)N1CCN(c2cnc3ccccc3n2)C(C(C)C)C1 (centres unmarked) [Example 1.70, N′-cyano-3-isopropyl-N-(2-methylphenyl)-4-(quinoxalin-2-yl)piperazine-1-carboximidamide]
> 5.37 µM | Cc1ccncc1NC(=NC#N)N1CCN(c2cnc3ccccc3n2)CC1C(C)C (centres unmarked) [Example 1.72, N′-cyano-2-isopropyl-N-(4-methylpyridin-3-yl)-4-(quinoxalin-2-yl)piperazine-1-carboximidamide]
> 10 µM | Cc1ncccc1N/C(=N/C#N)N1CCN(c2cnc3ccccc3n2)CC1C(C)C (centres unmarked) [Example 1.73, N′-cyano-2-isopropyl-N-(2-methylpyridin-3-yl)-4-(quinoxalin-2-yl)piperazine-1-carboximidamide]
> 61.7 µM | Cc1ccccc1NC(=NC#N)N1CCN(c2cnc3ccccc3n2)CC1 [Example 1.74, N′-cyano-N-(2-methylphenyl)-4-(quinoxalin-2-yl)piperazine-1-carboximidamide]

Further lines, the compound ahead of its results:

SMILES | EC50
CC(C)CC1CN(c2cnc3ccccc3n2)CCN1/C(=N\C#N)Nc1ccccc1Cl (centres unmarked) [Example 1.41, N-(2-chlorophenyl)-N′-cyano-2-isobutyl-4-(quinoxalin-2-yl)piperazine-1-carboximidamide] | 1.22 µM
Cc1ccccc1N/C(=N/C#N)N1CCN(c2cnc3ccccc3n2)CC1C1CCCCC1 (centres unmarked) [Example 1.48, N′-cyano-2-cyclohexyl-N-(2-methylphenyl)-4-(quinoxalin-2-yl)piperazine-1-carboximidamide] | 1.34 µM
Cc1cc2ncc(N3CCN(/C(=N\C#N)Nc4ccccc4C)C(C(C)C)C3)nc2cc1C (centres unmarked) [Example 1.50, N′-cyano-4-(6,7-dimethylquinoxalin-2-yl)-2-isopropyl-N-(2-methylphenyl)piperazine-1-carboximidamide] | > 3.2 µM
Cc1ccccc1N/C(=N/C#N)N1CCN(c2cnc3cc(F)c(F)cc3n2)CC1C(C)C (centres unmarked) [Example 1.51, N′-cyano-4-(6,7-difluoroquinoxalin-2-yl)-2-isopropyl-N-(2-methylphenyl)piperazine-1-carboximidamide] | 0.69 µM
Cc1ccccc1N/C(=N/C#N)N1CCN(c2nc3ccccc3nc2C)CC1C(C)C (centres unmarked) [Example 1.52, N′-cyano-2-isopropyl-N-(2-methylphenyl)-4-(3-methylquinoxalin-2-yl)piperazine-1-carboximidamide] | > 10 µM
Cc1ccccc1N/C(=N/C#N)N1CCN(c2nc3ccccc3nc2C(F)(F)F)CC1C(C)C (centres unmarked) [Example 1.53, N′-cyano-2-isopropyl-N-(2-methylphenyl)-4-[3-(trifluoromethyl)quinoxalin-2-yl]piperazine-1-carboximidamide] | > 10 µM
Cc1ccc2ncc(N3CCN(/C(=N\C#N)Nc4ccccc4C)C(C(C)C)C3)nc2c1 (centres unmarked) [Example 1.56, N′-cyano-2-isopropyl-N-(2-methylphenyl)-4-(7-methylquinoxalin-2-yl)piperazine-1-carboximidamide] | 1.6 µM
Cc1ccccc1N/C(=N/C#N)N1CCN(c2cnc3cc(C(F)(F)F)ccc3n2)CC1C(C)C (centres unmarked) [Example 1.57, N′-cyano-2-isopropyl-N-(2-methylphenyl)-4-[6-(trifluoromethyl)quinoxalin-2-yl]piperazine-1-carboximidamide] | 0.29 µM
Cc1ccccc1N/C(=N/C#N)N1CCN(c2cnc3cc(Cl)c(Cl)cc3n2)CC1C(C)C (centres unmarked) [Example 1.58, N′-cyano-4-(6,7-dichloroquinoxalin-2-yl)-2-isopropyl-N-(2-methylphenyl)piperazine-1-carboximidamide] | > 3.2 µM
Cc1ccccc1N/C(=N/C#N)N1CCN(c2cnc3cccc(C(F)(F)F)c3n2)CC1C(C)C (centres unmarked) [Example 1.59, N′-cyano-2-isopropyl-N-(2-methylphenyl)-4-[8-(trifluoromethyl)quinoxalin-2-yl]piperazine-1-carboximidamide] | > 3.2 µM
Cc1ccccc1N/C(=N/C#N)N1CCN(c2cnc3ccc(F)cc3n2)CC1C(C)C (centres unmarked) [Example 1.60, N′-cyano-4-(7-fluoroquinoxalin-2-yl)-2-isopropyl-N-(2-methylphenyl)piperazine-1-carboximidamide] | 1.05 µM
Cc1ccccc1N/C(=N/C#N)N1CCN(c2ccc3ccccc3n2)CC1C(C)C (centres unmarked) [Example 1.61, N′-cyano-2-isopropyl-N-(2-methylphenyl)-4-(quinolin-2-yl)piperazine-1-carboximidamide] | > 6.6 µM
Cc1ccccc1NC(=NC#N)N1CCN(c2cncc(N3CCOCC3)n2)CC1C(C)C (centres unmarked) [Example 1.63, N′-cyano-2-isopropyl-N-(2-methylphenyl)-4-[6-(morpholin-4-yl)pyrazin-2-yl]piperazine-1-carboximidamide] | > 10 µM
Cc1ccccc1NC(=NC#N)N1CCN(c2nc(C)c(C)c(NC3CCCCC3)n2)CC1C(C)C (centres unmarked) [Example 1.64, N′-cyano-4-[4-(cyclohexylamino)-5,6-dimethylpyrimidin-2-yl]-2-isopropyl-N-(2-methylphenyl)piperazine-1-carboximidamide] | > 10 µM
Cc1ccccc1NC(=NC#N)N1CCN(c2ccc3nccnc3n2)CC1C(C)C (centres unmarked) [Example 1.65, N′-cyano-2-isopropyl-N-(2-methylphenyl)-4-(pyrido[2,3-b]pyrazin-6-yl)piperazine-1-carboximidamide] | 5.9 µM
Cc1ccccc1NC(=NC#N)N1CCN(c2ccc3cccnc3n2)CC1C(C)C (centres unmarked) [Example 1.66, N′-cyano-2-isopropyl-N-(2-methylphenyl)-4-(1,8-naphthyridin-2-yl)piperazine-1-carboximidamide] | 1.5 µM
Cc1ccccc1NC(=NC#N)N1CCN(c2cnc3cc(F)ccc3n2)C[C@@H]1C(C)C [Example 1.67, (2S)—N′-cyano-4-(6-fluoroquinoxalin-2-yl)-2-isopropyl-N-(2-methylphenyl)piperazine-1-carboximidamide] | 0.36 µM
Cc1ccc2ccc(N3CCN(C(=NC#N)Nc4ccccc4C)C(C(C)C)C3)nc2n1 (centres unmarked) [Example 1.68, N′-cyano-2-isopropyl-4-(7-methyl-1,8-naphthyridin-2-yl)-N-(2-methylphenyl)piperazine-1-carboximidamide] | > 10 µM
Cc1ccccc1NC(=NC#N)N1CCN(c2nc3ccccc3n2C)CC1C(C)C (centres unmarked) [Example 1.69, N′-cyano-2-isopropyl-4-(1-methyl-1H-benzimidazol-2-yl)-N-(2-methylphenyl)piperazine-1-carboximidamide] | 2.99 µM
Cc1ccccc1N(C)C(=NC#N)N1CCN(c2cnc3ccccc3n2)CC1C(C)C (centres unmarked) [Example 1.75, N′-cyano-2-isopropyl-N-methyl-N-(2-methylphenyl)-4-(quinoxalin-2-yl)piperazine-1-carboximidamide] | 3.4 µM
Cc1ccccc1NC(=NC#N)NC(CNc1cnc2ccccc2n1)C(C)C (centres unmarked) [Example 2.1, 2-cyano-1-(2-methylphenyl)-3-[3-methyl-1-(quinoxalin-2-ylamino)butan-2-yl]guanidine] | > 10 µM
